Test results published in US20150344540A1, “NOVEL GLP-1 RECEPTOR AGONISTS WITH CHOLESTEROL EFFLUX ACTIVITY” (NOVO NORDISK A/S, priority 2012, published 2015).

Key:
[1] = Pharmacokinetics in mini-pigs after i.v. administration; details: female, Göttingen, minipig, plasma, iv, 5 nmol/kg
In short: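 Female Göttingen mini-pigs (15-20 kg, N=3) received 5 nmol/kg i.v. via central venous catheter. Plasma levels of N-terminally intact peptide measured by LOCI immunoassay with N-terminal and mid-/C-terminal antibodies; non-compartmental analysis of individual profiles.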

[2] = Pharmacokinetics in normal mice after i.v. and s.c. administration; type: in vivo, female C57B1/6J mice
human GLP-1 receptor = human GLP-1 receptor (Homo sapiens, UniProt P43220); assay: Functional GLP-1 receptor assay, in vitro potency (CRE luciferase; whole cells); type: cell-based; details: GLP1R CRE luc 1% HSA EC50 Mean Value, BHK cells expressing human GLP-1 receptor, 1% HSA
[3] = female, C57B1/6J, mouse, plasma, sc

Sequence of human GLP-1 receptor (P43220 24-463): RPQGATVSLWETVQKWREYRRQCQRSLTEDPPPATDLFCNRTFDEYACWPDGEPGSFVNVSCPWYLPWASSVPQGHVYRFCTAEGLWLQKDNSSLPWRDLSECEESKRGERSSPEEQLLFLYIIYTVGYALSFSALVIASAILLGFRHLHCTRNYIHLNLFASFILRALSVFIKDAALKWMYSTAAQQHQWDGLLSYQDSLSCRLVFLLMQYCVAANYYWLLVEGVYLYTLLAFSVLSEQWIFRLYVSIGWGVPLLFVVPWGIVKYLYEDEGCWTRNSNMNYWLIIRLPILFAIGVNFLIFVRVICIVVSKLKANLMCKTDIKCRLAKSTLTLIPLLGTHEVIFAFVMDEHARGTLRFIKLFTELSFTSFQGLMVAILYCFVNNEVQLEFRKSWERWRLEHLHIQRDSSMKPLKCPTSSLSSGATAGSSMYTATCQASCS

C0 [1]: 57.2 nM
Vd [1]: 0.16 L/kg
clearance [1]: 3.3 mL/h/kg
half-life ([1]; T1/2, mini-pigs): 33.7 h
half-life ([1]; T1/2 Mean Value, Göttingen mini-pigs, N=3): 33.7 h
half-life ([2]; female, C57B1/6J, mouse, plasma, iv): 6.7 h
Vd ([2]; female, C57B1/6J, mouse, plasma, iv, read-out: Volume of distribution): 0.0456 L/kg
Tmax [2, 3]: 4 h
half-life [2, 3]: 11.5 h
clearance ([2]; mice, i.v., Compound 1 dose 99 nmol/kg, Compound 5 dose 135 nmol/kg): 4.69 mL/h/kg
Volume of distribution ([2]; mice, s.c., Compound 1 dose 323 nmol/kg, Compound 5 dose 62 nmol/kg): 0.1592 L/kg
EC50 (human GLP-1 receptor): 0.111 nM
SMILES: CC[C@H](C)[C@H](NC(=O)[C@H](Cc1ccccc1)NC(=O)[C@H](CCC(=O)O)NC(=O)[C@H](CCCCN)NC(=O)[C@@H](NC(=O)[C@H](C)NC(=O)[C@H](CCC(=O)O)NC(=O)CNC(=O)[C@H](CCC(=O)O)NC(=O)[C@H](CC(C)C)NC(=O)[C@H](Cc1ccc(O)cc1)NC(=O)[C@H](CO)NC(=O)[C@H](CO)NC(=O)[C@@H](NC(=O)[C@H](CC(=O)O)NC(=O)[C@H](CO)NC(=O)[C@@H](NC(=O)[C@H](Cc1ccccc1)NC(=O)[C@@H](NC(=O)CNC(=O)[C@H](CCC(=O)O)NC(=O)C(C)(C)NC(=O)[C@@H](N)Cc1c[nH]cn1)[C@@H](C)O)[C@@H](C)O)C(C)C)C(C)C)C(=O)N[C@@H](C)C(=O)N[C@@H](Cc1c[nH]c2ccccc12)C(=O)N[C@@H](CC(C)C)C(=O)N[C@H](C(=O)N[C@@H](CCC(=O)O)C(=O)N[C@@H](CCCCN)C(=O)NC(C)(C)C(=O)N[C@@H](CCCCN)C(=O)N[C@@H](CCC(=O)O)C(=O)N[C@@H](Cc1ccccc1)C(=O)N[C@@H](CC(C)C)C(N)=O)C(C)C [Compound 1, [Aib8,Glu23,Val25,Glu34,Lys35,Aib36,Lys37]-GLP-1-(7-37)-peptidyl-Glu-Phe-Leu amide]
